{"source": "patent US8613941B1", "about": "“Synergistic antimicrobial composition” (Dow Global Technologies LLC, priority 2012, dated 2013)", "key": {"[1]": {"test_system": "oil field isolated anaerobic consortium, mainly SRB", "test": "Biocidal efficacy (MBC) of THPS, Tris Nitro and combination against sulfate reducing bacteria", "assay_type": "cell-based, sulfate reducing bacteria (SRB)", "settings": "alone or in the blend, minimum tested biocide concentration for bacteria kill, 40° C., 24 hours, 10^6 to 10^7 CFU/mL", "description": "Inside an anaerobic chamber (BACTRON anaerobic chamber), a deaerated sterile salt solution (3.1183 g of NaCl, 1.3082 mg of NaHCO3, 47.70 mg of KCl, 72.00 mg of CaCl2, 54.49 mg of MgSO4, 172.28 mg of Na2SO4, 43.92 mg of Na2CO3 in 1 L water) was contaminated with an oil field isolated anaerobic consortium, mainly SRB, at final bacterial concentrations of 10^6 to 10^7 CFU/mL. The aliquots of this contaminated water were then treated with THPS and Tris Nitro, or the THPS/Tris Nitro combination at different active concentration levels. After the mixtures were incubated at 40° C. for 24 hours, the biocidal efficacy was determined by minimum tested biocide concentration for bacteria kill in the aliquots (MBC). Table 1 summarizes the efficacy of each biocide and their blends, and the Synergy Index* of each combination."}, "[2]": {"test_system": "oilfield SRB consortium", "test": "Biocidal efficacy against anaerobic bacteria for a high temperature and sulfide-rich environment", "assay_type": "cell-based, sulfate reducing bacteria (SRB)", "settings": "alone or in the blend, 80° C., 7 days, 10 ppm sulfide ion, 10^4 to 10^5 CFU/mL", "description": "Inside an anaerobic chamber (BACTRON IV), biocides solutions were challenged with 10^4 to 10^5 CFU/mL of an oilfield SRB consortium and 10 ppm sulfide ion (added in the form of sodium sulfide). The biocide solutions were then incubated at 80° C. under anaerobic condition for 7 days. Then the biocidal efficacy was evaluated against the field SRB consortium. The biocidal efficacy was determined by the biocide dosage required for 99.999% bacterial reduction. Synergy Index was then calculated. Table 2 summarizes the efficacy of each biocide and their blends, and the Synergy Index* of each combination."}}}
{"compound": "tetrakis(hydroxymethyl)phosphonium sulfate [1:0]", "values": [{"measurement": "Average MBC (active ppm), THPS", "setting": "[1]; THPS concentration", "value": 6.1, "unit": "active ppm"}, {"measurement": "Concentration (active ppm) required for 99.999% bacterial reduction, THPS", "setting": "[2]; THPS concentration", "value": 360.0, "unit": "active ppm"}]}
{"compound": "O=[N+]([O-])C(CO)(CO)CO", "note": "[0:1, tris(hydroxymethyl)nitromethane]", "values": [{"measurement": "Average MBC (active ppm), Tris Nitro", "setting": "[1]; Tris Nitro concentration", "value": 46.1, "unit": "active ppm"}, {"measurement": "Concentration (active ppm) required for 99.999% bacterial reduction, Tris Nitro", "setting": "[2]; Tris Nitro concentration", "value": 360, "unit": "active ppm"}]}
